Measured values taken from PMC8699473, “An Easily Expandable Multi-Drug LC-MS Assay for the Simultaneous Quantification of 57 Oral Antitumor Drugs in Human Plasma” (Cancers, 2021).
Read-outs that look alike come from different tables or passages of the source.

Columns and labels:
[1] = Freeze-thaw stability in spiked pooled human plasma; assay type: physicochemical
[2] = parameters: method as in supplement references [1-55] as printed per drug; conditions: minimum steady-state blood plasma concentration after multiple dose administration; ref supplement references [1-55] per drug; cited from earlier work
[3] = Autosampler stability of ready for injection samples; assay type: physicochemical, human

Row | SMILES | Freeze-Thaw Accuracy [%] ([1]; validation standard 2xLLOV) | Freeze-Thaw Accuracy [%] ([1]; validation standard LLOV) | Freeze-Thaw Accuracy [%] ([1]; validation standard MOV) | Freeze-Thaw Accuracy [%] ([1]; validation standard ULOV) | cmin [2] [ng/mL] | Autosampler (24h, 4°C) Accuracy [%] ([3]; validation standard 2xLLOV) | Autosampler (72h, 4°C) Accuracy [%] ([3]; validation standard 2xLLOV) | Autosampler (24h, 4°C) Accuracy [%] ([3]; validation standard LLOV) | Autosampler (72h, 4°C) Accuracy [%] ([3]; validation standard LLOV) | Autosampler (24h, 4°C) Accuracy [%] ([3]; validation standard MOV) | Autosampler (72h, 4°C) Accuracy [%] ([3]; validation standard MOV) | Autosampler (24h, 4°C) Accuracy [%] ([3]; validation standard ULOV) | Autosampler (72h, 4°C) Accuracy [%] ([3]; validation standard ULOV) | Freeze-Thaw Accuracy [%] [1] [%] | Autosampler (24h, 4°C) Accuracy [%] [3] [%] | Autosampler (72h, 4°C) Accuracy [%] [3] [%]
1 | Cc1ccc(Nc2nccc(N(C)c3ccc4c(C)n(C)nc4c3)n2)cc1S(N)(=O)=O [Pazopanib] | 103.5 | 102.7 | 103.9 | 100.5 | 24000 | 103.7 | 99.4 | 101.3 | 99.0 | 101.7 | 97.9 | 99.8 | 99.0 | – | – | –
2 | CC(C)(C)c1nc(-c2cccc(NS(=O)(=O)c3c(F)cccc3F)c2F)c(-c2ccnc(N)n2)s1 [Dabrafenib] | 97.8 | 93.9 | 99.0 | 97.6 | 46.6 | 97.9 | 99.3 | 93.5 | 93.1 | 102.1 | 99.8 | 100.7 | 101.4 | – | – | –
3 | C=CC(=O)Nc1cc(Nc2nccc(-c3cn(C)c4ccccc34)n2)c(OC)cc1N(C)CCN(C)C [Osimertinib] | 93.7 | 95.6 | 96.2 | 92.7 | 166 | 104.2 | 99.1 | 90.3 | 91.2 | 103.8 | 100.3 | 98.4 | 99.1 | – | – | –
4 | COc1cc2ncnc(Nc3ccc(F)c(Cl)c3)c2cc1OCCCN1CCOCC1 [Gefitinib] | 97.6 | 92.4 | 97.8 | 97.1 | 291 | 102.3 | 98.5 | 91.6 | 90.7 | 105.6 | 102.2 | 96.7 | 97.0 | – | – | –
5 | Cc1ccc(C(=O)Nc2ccc(CN3CCN(C)CC3)c(C(F)(F)F)c2)cc1C#Cc1cnc2cccnn12 [Ponatinib] | 101.8 | – | 99.3 | 100.2 | 34 | 106.1 | 106.1 | – | – | 106.1 | 102.3 | 101.9 | 102.0 | 101.5 | 104.7 | 104.7
6 | CC1(C)CCC(CN2CCN(c3ccc(C(=O)NS(=O)(=O)c4ccc(NCC5CCOCC5)c([N+](=O)[O-])c4)c(Oc4cnc5[nH]ccc5c4)c3)CC2)=C(c2ccc(Cl)cc2)C1 [Venetoclax] | 102.4 | 105.4 | 97.8 | 101.9 | 520 | 106.9 | 104.7 | 106.3 | 103.3 | 100.0 | 102.3 | 103.7 | 102.7 | – | – | –
7 | CCN1CCN(Cc2ccc(Nc3ncc(F)c(-c4cc(F)c5nc(C)n(C(C)C)c5c4)n3)nc2)CC1 [Abemaciclib] | 96.4 | 90.4 | 102.7 | 105.3 | 181 | 99.5 | 95.3 | 89.1 | 86.1 | 100.7 | 96.7 | 102.6 | 100.1 | – | – | –
8 | CCN(CC)CCNC(=O)c1c(C)[nH]c(/C=C2\C(=O)Nc3ccc(F)cc32)c1C [Sunitinib] | 102.8 | 117.0 | 99.1 | 100.3 | 51.6 | 113.8 | 111.0 | 113.8 | 119.4 | 111.8 | 114.3 | 113.4 | 119.5 | – | – | –
9 | COc1cc2ncnc(Nc3ccc(F)c(Cl)c3)c2cc1NC(=O)/C=C/CN1CCCCC1 [Dacomitinib] | 92.5 | 89.8 | 95.9 | 96.3 | 73.1 | 102.5 | 99.5 | 93.3 | 92.3 | 104.5 | 100.5 | 98.4 | 98.0 | – | – | –
10 | CS(=O)(=O)c1ccc(C(=O)Nc2ccc(Cl)c(-c3ccccn3)c2)c(Cl)c1 [Vismodegib] | 103.4 | 77.6 | 103.2 | 94.1 | 11367 | 105.1 | 109.2 | 84.9 | 85.6 | 108.4 | 107.5 | 96.6 | 99.7 | – | – | –
11 | CNC(=O)c1cc(Oc2ccc(NC(=O)Nc3ccc(Cl)c(C(F)(F)F)c3)cc2)ccn1 [Sorafenib] | 97.6 | 103.3 | 96.9 | 98.7 | 3750 | 103.1 | 104.1 | 112.0 | 104.9 | 101.0 | 103.5 | 101.7 | 98.3 | – | – | –
12 | CCCS(=O)(=O)Nc1ccc(F)c(C(=O)c2c[nH]c3ncc(-c4ccc(Cl)cc4)cc23)c1F [Vemurafenib] | 98.2 | 101.9 | 97.5 | 99.2 | 39000 | 103.5 | 102.3 | 112.7 | 109.4 | 99.5 | 101.8 | 104.1 | 99.4 | – | – | –
13 | CCOc1cc2ncc(C#N)c(Nc3ccc(OCc4ccccn4)c(Cl)c3)c2cc1NC(=O)/C=C/CN(C)C [Neratinib] | 82.2 | 64.7 | 88.9 | 87.2 | 52.6 | 95.7 | 100.1 | 75.2 | 73.8 | 103.1 | 100.5 | 93.3 | 96.0 | – | – | –
14 | NC(=O)c1cccc2cn(-c3ccc([C@@H]4CCCNC4)cc3)nc12 [Niraparib] | 96.8 | 98.0 | 96.5 | 97.1 | 649 | 103.0 | 99.6 | 96.8 | 96.3 | 104.6 | 100.5 | 100.8 | 100.1 | – | – | –
15 | COC(=O)N[C@@H](C)CNc1nccc(-c2cn(C(C)C)nc2-c2cc(Cl)cc(NS(C)(=O)=O)c2F)n1 [Encorafenib] | 94.9 | 90.4 | 101.4 | 98.7 | 23 | 102.4 | 102.6 | 87.7 | 98.2 | 112.5 | 110.5 | 100.5 | 102.4 | – | – | –
16 | Cn1cnc2c(F)c(Nc3ccc(Br)cc3F)c(C(=O)NOCCO)cc21 [Binimetinib] | 92.6 | 93.8 | 100.1 | 105.2 | 53.3 | 104.7 | 101.6 | 103.1 | 98.1 | 105.0 | 95.8 | 102.1 | 102.4 | – | – | –
17 | CNC(=O)c1ccc(N2C(=S)N(c3ccc(C#N)c(C(F)(F)F)c3)C(=O)C2(C)C)cc1F [Enzalutamide] | 97.8 | 87.6 | 100.9 | 96.1 | 11400 | 100.5 | 102.2 | 89.9 | 91.3 | 108.0 | 105.7 | 101.7 | 103.3 | – | – | –
18 | CS(=O)(=O)CCNCc1ccc(-c2ccc3ncnc(Nc4ccc(OCc5cccc(F)c5)c(Cl)c4)c3c2)o1 [Lapatinib] | 96.0 | 86.5 | 102.3 | 94.7 | 780 | 99.4 | 102.1 | 92.7 | 94.4 | 103.2 | 101.5 | 99.7 | 98.8 | – | – | –
19 | CC(=O)Nc1cccc(-n2c(=O)n(C3CC3)c(=O)c3c(Nc4ccc(I)cc4F)n(C)c(=O)c(C)c32)c1 [Trametinib] | 97.6 | 93.8 | 102.5 | 97.0 | 12.1 | 105.8 | 101.8 | 101.7 | 100.1 | 103.1 | 103.5 | 97.7 | 97.0 | – | – | –
